These results are taken from patent publication EP4624457A1, “I[…] DERIVATIVES, I[…] NEURODEGENERATIVE DISEASES” (Centre National de la Recherche Scientifique, priority 2024, dated 2025).

In this assay the test system is HCT116 cells. As to the kind of experiment: JC-1 mitochondrial membrane potential assay (flow cytometry). The class given is cell-based, human. The protocol: • Figure 1 represents the chemical structure of ingrilimine according to compound (Illa) formula. • Figure 2 represents the cytotoxic activity of ingrilimine. A2780 ovarian and HT29 colorectal carcinoma cells were grown in RPMI 1640 supplemented with 10% fetal calf serum (FCS) and 1% glutamine. U87-MG glioblastoma cells were grown in Dulbecco minimal essential medium containing 4.5 g/L glucose, 10% FCS and 1% glutamine at 37 °C in a humidified atmosphere containing 5% CO2. For IC50 determination, the cells were seeded in 96-well plates (3 × 10^3 cells/well) containing 90 µL of growth medium. After 24 h of culture, the cells were treated with ingrilimine at 10 different final concentrations. Cell viability was determined by luminescence after 72 h incubation. (a) Effect of ingrilimine on A2780 ovarian carcinoma cells. (b) Effect of ingrilimine on U87-MG glioblastoma cells. (c) Effect of ingrilimine on U87-MG glioblastoma cells • Figure 3a-3f represent the mitochondrial dysfunction provoked by ingrilimine. HCT116 cells were treated with ingrilimine in the range of […] for 24h and 48h. Sector Q normal cells that accumulated the JC-1 dye (fluorescence emission 590 nm). […] (a) Non-treated cells incubated with the carrier (DMSO) for 24 h. (b) HCT116 cells incubated with 10 nN ingrilimine for 24 h. (c) HCT116 cells incubated with 250 nM ingrilimine for 24 h. (d) Non-treated cells incubated with the carrier (DMSO) for 48 h. (e) HCT116 cells incubated with 10 nN ingrilimine for 48 h. (f) HCT116 cells incubated with 250 nM ingrilimine for 48. Changes in fluorescence emission were recorded by flow cytometry using the JC-1 mithocondrial membrane potential-dependent fluorescent dye. NT = non-treated cells; IngX = ingrilimine. • Figure 4a-4f represents phosphatidylserine exposure provoked by ingrilimine. […] Quadrants D1 and D2 with dead or necrotic cells, quadrant D3 with normal cells and quadrant D4 with apoptotic cells following phosphatidylserine exposure. (a) Non-treated A2780 cells incubated with the carrier (DMSO) for 24h. (b) A2780 cells incubated with 10 nM ingrilimine for 24 h. (c) A2780 cells incubated with 250 nM ingrilimine for 24 h. (d) Non-treated A2780 cells incubated with the carrier (DMSO) for 48 h. (e) A2780 cells incubated with 10 nM ingrilimine for 48 h. (f) A2780 cells incubated with 250 nM ingrilimine for 48. […] exposure in A2780 cell was quantified by flow cytometry using FITC-Annexin V. Dead or necrotic cells were detected using the vital dye propridium iodide. NT = non-treated cells; IngX = ingrilimine. • Figure 5 represents the antagonistic activity of ingrilimine (named "IngX" in the figure) and portimine (named "Port A" in the figure) against nicotinic acetylcholine receptors recorded by two-electrodes voltage clamp electrophysiology on Xenopus laevis oocytes. Clamped Xenopus laevis oocytes having incorporated the muscle (α1)2βγδ nAChR subtype from Torpedo marmorata (filled squares), or expressing the neuronal α3β2 nAChR subtype from rat (filled triangles), or expressing the human neuronal α7 nAChR subtype (filled circles) were exposed to portimine (100 nM - 1 mM) for 45 seconds. […] A Xenopus laevis oocyte expressing the human α7 nAChR subtype was exposed to 100 µM acetylcholine triggering the immediate opening of the receptor's channel (black bold line) followed by the very-fast closure of the channel ([…]) that became insensitive to acetylcholine during the rest of the 5 seconds exposure (desensitization). When a Xenopus laevis oocyte expressing the human α7 nAChR subtype was exposed first to 10 nM ingrilimine for 45 seconds and then to a mixture (Mix) containing 10 nM ingrilimine and 100 µM acetylcholine, the receptor's channel was closed denoting a strong antagonistic activity of the tested toxin against the α7 nAChR subtype (dotted line). […]
On the technique in general: Flow cytometry measures light scatter and fluorescence of single cells or particles in a stream.

On to `C=CC1=C[C@@H]2C[C@@H](O)[C@@H](O)/C(C)=C/C/C(C)=C/CCC3=NCCC[C@]32CC1` [Ingrilimine, ingrilimine], for which the JC-1 % by setting is: (10 nM, 24 h) 5.1%; (10 nM, 48 h) 4.4%; (50 nM, 24 h) 6.1%; (50 nM, 48 h) 22.6%; (100 nM, 24 h) 14.9%; (100 nM, 48 h) 44.1%. This compound also gave a JC-1 % (250 nM, 24 h) of 22.7%; a JC-1 % (250 nM, 48 h) of 64.1%; a JC-1 % (500 nM, 24 h) of 36.9%. For the same compound, the “times less potent than portimine in inducing mitochondrial membrane depolarization” value (HCT116, JC-1) was 10 times.
In turn, `C=CC1=C[C@@H]2[C@@H]3O[C@]4(CC[C@H](O4)[C@@H](C)C[C@@H](O)C3=O)C[C@H](O)C3=NCC[C@@]32CC1` [Portimine-A] came in with a JC-1 % (5 nM, 48 h) of 31.6%; a JC-1 % (10 nM, 24 h) of 19.7%; a JC-1 % (10 nM, 48 h) of 44.6%; a JC-1 % (20 nM, 24 h) of 23.9%; a JC-1 % (20 nM, 48 h, listed as Portimine) of 62.1%; a JC-1 % (20 nM, 48 h, listed as portimine) of 62.3%. Moreover, the JC-1 % (50 nM, 24 h) is on record as 37.0%.
